Test results from patent publication US20230172930A1, “USE OF COMPLEMENT FACTOR D INHIBITORS ALONE OR IN COMBINATION WITH ANTI-C5 ANTIBODIES FOR TREATMENT OF PAROXYSMAL NOCTURNAL HEMOGLOBINURIA” (Alexion Pharmaceuticals, Inc., priority 2020, published 2023).

Assays:
[1] = tested on: PNH erythrocytes; assay: Phase 2 study: PNH clone size and C3 fragment deposition on erythrocytes by flow cytometry (anti-human C3d antibody); type: in vivo
Method: (§1) FIGS. 4A-4D are graphs depicting the effect on complement biomarkers and PNH clone size. […] Arithmetic mean and standard derivation (SD) were shown for all but the clone size of C3d^+ PNH erythrocytes where geometric mean was used, and the range was shown at each time point. NHS, normal human serum; BL, baseline; LLN, lower limit normal; ULN, upper limit normal.
(§2) Pharmacodynamics were determined by measuring serum AP activity with AP hemolysis assay. Serum CP activity, Plasma Bb concentration, serum FD, and C3 concentrations were also monitored. Complement tests were conducted by a central lab using commercial kits, with the exception of AP hemolysis assay which was conducted internally for exploratory purposes. At each AP hemolysis run, a single normal human serum sample was included in addition to the patient serum samples so hemolysis values of individual patient serum samples could be standardized to the hemolysis value of the normal human serum sample. Finally, PNH clone size and C3 fragment deposition on erythrocytes was measured using flow cytometry with FITC conjugated anti-human C3d antibody.

[2] = as above; type: in vivo
Method: as §1, §2

[3] = tested on: PNH patients with an inadequate response to eculizumab; assay: Phase 2 study: FACIT-Fatigue Scale V4 (score range 0-52, higher = improvement); type: in vivo, human; details: for FACIT-Fatigue, mean: N=11
Text: This study utilized the validated quality of life instrument FACIT-Fatigue Scale (Version 4). This self-reporting instrument measures the severity of fatigue being experienced on a scale of 0 to 52 where a score of less than 30 represents severe fatigue and higher scores indicate improvement in fatigue. A 3-point change is clinically meaningful on this scale. A 10-point or greater change is highly significant on this scale. […] This constitutes an upper limit of the disclosure.

[4] = tested on: PNH patients with an inadequate response to eculizumab; assay: Phase 2 study: RBC transfusion needs (events, units, annualized rates); type: in vivo, human
Method: Transfusion frequency and amount were evaluated via annualized rates and units, respectively. The average intensive rate of transfusion frequency before treatment was calculated by summing the number of transfusion events in the 52 weeks prior to Screening plus days from Screening to Day 1 of dosing from 10 patients and dividing this sum by the patients' total exposure times. The average intensive rate in the 24 weeks post-treatment was calculated with the same method. The ratio of these two intensive rates (post vs. pre) was used to quantify the treatment effect. Standard statistical analysis for comparing the two intensity rates (post- vs pre-treatment) was conducted.

[5] = Patient J, Week 12, danicopan 100 mg TID + eculizumab 1200 mg q14d
[6] = Patient J, Week 24, danicopan 200 mg TID + eculizumab 1200 mg q14d
[7] = Patient K, Baseline, before danicopan, on eculizumab 900 mg q14d
[8] = Patient K, Week 12, danicopan 100 mg TID + eculizumab 900 mg q14d
[9] = Patient K, Week 24, danicopan 150 mg TID + eculizumab 900 mg q14d
[10] = pre-danicopan: 52-week history plus screening to Day 1, ten patients on eculizumab

SMILES: CC(=O)c1nn(CC(=O)N2C[C@H](F)C[C@H]2C(=O)Nc2cccc(Br)n2)c2ccc(-c3cnc(C)nc3)cc12 [Danicopan, danicopan]
- PNH RBC clone size [1, 5]: 99%
- C3d^+ PNHRBCs [1, 6]: 28.7%
- PNH RBC clone size [1, 6]: 99%
- C3d^+ PNHRBCs [1, 7]: 20.2%
- PNH RBC clone size [1, 7]: 55%
- C3d^+ PNHRBCs [1, 8]: 44.2%
- PNH RBC clone size [1, 8]: 84%
- C3d^+ PNHRBCs [1, 9]: 6.30%
- PNH RBC clone size [1, 9]: 91%
- clone size of PNH granulocytes, mean±SD ([2]; Week 24): 95±7.2%
- clone size of PNH granulocytes, mean±SD ([2]; baseline): 92±9.2%
- FACIT-Fatigue, mean ([3]; Baseline, before danicopan, on eculizumab): 34
- FACIT-Fatigue, mean ([3]; Week 24, danicopan 100-200 mg TID + eculizumab): 45
- FACIT-Fatigue ([3]; Patient A, Baseline, before danicopan, on eculizumab 900 mg q14d): 33
- FACIT-Fatigue ([3]; Patient A, Week 12, danicopan 150 mg TID + eculizumab 900 mg q14d): 48
- FACIT-Fatigue ([3]; Patient A, Week 24, danicopan 150 mg TID + eculizumab 900 mg q14d): 52
- FACIT-Fatigue ([3]; Patient B, Baseline, before danicopan, on eculizumab 1200 mg q14d): 45
- FACIT-Fatigue ([3]; Patient B, Week 12, danicopan 100 mg TID + eculizumab 900 mg q14d): 49
- FACIT-Fatigue ([3]; Patient B, Week 24, danicopan 100 mg TID + eculizumab 900 mg q14d): 48
- FACIT-Fatigue ([3]; Patient C, Baseline, before danicopan, on eculizumab 900 mg q14d): 17
- FACIT-Fatigue ([3]; Patient C, Week 12, danicopan 150 mg TID + eculizumab 900 mg q14d): 36
- FACIT-Fatigue ([3]; Patient C, Week 24, danicopan 150 mg TID + eculizumab 900 mg q14d): 26
- FACIT-Fatigue ([3]; Patient D, Baseline, before danicopan, on eculizumab 900 mg q14d): 18
- FACIT-Fatigue ([3]; Patient D, Week 12, danicopan 150 mg TID + eculizumab 900 mg q14d): 41
- FACIT-Fatigue ([3]; Patient D, Week 24, danicopan 150 mg TID + eculizumab 900 mg q14d): 41
- FACIT-Fatigue ([3]; Patient E, Baseline, before danicopan, on eculizumab 1200 mg q14d): 42
- FACIT-Fatigue ([3]; Patient E, Week 12, danicopan 150 mg TID + eculizumab 1200 mg q14d): 25
- FACIT-Fatigue ([3]; Patient E, Week 24, danicopan 150 mg TID + eculizumab 1200 mg q14d): 38
- FACIT-Fatigue score ([3]; Patient F, Baseline): 9 points
- FACIT-Fatigue improvement ([3]; Patient F, Baseline to Week 24): 43 point
- FACIT-Fatigue ([3]; Patient F, Baseline, before danicopan, on eculizumab 900 mg q14d): 9
- FACIT-Fatigue ([3]; Patient F, Week 12, danicopan 150 mg TID + eculizumab 900 mg q14d): 48
- FACIT-Fatigue score ([3]; Patient F, Week 24): 52 points
- FACIT-Fatigue ([3]; Patient F, Week 24, danicopan 150 mg TID + eculizumab 900 mg q14d): 52
- FACIT-Fatigue ([3]; Patient G, Baseline, before danicopan, on eculizumab 1500 mg q14d): 28
- FACIT-Fatigue ([3]; Patient G, Week 12, danicopan 100 mg TID + eculizumab 1500 mg q14d): 44
- FACIT-Fatigue ([3]; Patient G, Week 24, danicopan 100 mg TID + eculizumab 1500 mg q14d): 38
- FACIT-Fatigue ([3]; Patient H, Baseline, before danicopan, on eculizumab 900 mg q14d): 47
- FACIT-Fatigue ([3]; Patient H, Week 12, danicopan 200 mg TID + eculizumab 900 mg q14d): 49
- FACIT-Fatigue ([3]; Patient H, Week 24, danicopan 200 mg TID + eculizumab 900 mg q14d): 49
- FACIT-Fatigue ([3]; Patient I, Baseline, before danicopan, on eculizumab 900 mg q14d): 48
- FACIT-Fatigue ([3]; Patient I, Week 12, danicopan 100 mg TID + eculizumab 900 mg q14d): 50
- FACIT-Fatigue ([3]; Patient I, Week 24, danicopan 200 mg TID + eculizumab 900 mg q14d): 49
- FACIT-Fatigue ([3]; Patient J, Baseline, before danicopan, on eculizumab 1200 mg q14d): 49
- FACIT-Fatigue [3, 5]: 51
- FACIT-Fatigue [3, 6]: 51
- FACIT-Fatigue [3, 7]: 33
- FACIT-Fatigue [3, 8]: 46
- FACIT-Fatigue [3, 9]: 50
- mean increase in FACIT-Fatigue score ([3]; at 24 Weeks relative to Baseline on eculizumab): 11 points
- reduction in transfusion frequency ([4]; post- vs. pre-danicopan): 95.8%
- average annualized rate of transfusion events ([4]; post-danicopan (24 weeks)): 0.217
- average annualized transfusion units ([4]; post-danicopan (24 weeks)): 0.43
- average annualized rate of transfusion events ([4]; pre-danicopan): 5.234
- average annualized transfusion units ([4]; pre-danicopan): 9.27
- transfusions administered [4, 10]: 57
- units of packed red blood cells (PRBC) [4, 10]: 101 units
- units transfused ([4]; since commencing danicopan through week 24, ten patients): 2 units
